{
  "source": "patent EP2605769B1",
  "about": "“BENZOQUINONE DERIVATIVES FOR THE TREATMENT OF MITCHONDRIAL EYE DISEASES” (Santhera Pharmaceuticals (Schweiz) AG, priority 2010, dated 2012)",
  "key": {"[1]": {"test_system": "RGC-5 cells", "experiment": "Cellular viability of RGC-like cells challenged with rotenone (cellular ATP content)", "format": "cell-based", "source_text": "Mitochondrial impairment directly influences cellular survival. Especially cells and tissues that display high level of energy consumption, such as neurons are especially vulnerable. Consequently, these cells and tissues are likely to be the most responsive to a strategy that targets mitochondrial function. We addressed this possibility by assessing the viability of the retinal ganglion cell line RGC-5, challenged with the mitochondrial complex I inhibitor rotenone, in the absence or presence of compounds.\nExperimental procedure: RGC-5 cells were cultured under ambient conditions (37 °C, 5% CO2, 90% humidity) in DMEM (1g/l glucose; 10% fetal bovine serum (FBS), Penicillin-Streptomycin-Glutamine (PSG)). RGC-5 cells will be seeded in DMEM (1g/l glucose; 2% FBS) into BD Falcon™ cell culture plates. Before rotenone- induced complex I inhibition, the cells were pre-treated with Compound IA or vehicle. For Compound IA co-treatment with rotenone, new compound was added together with rotenone-containing cell culture media. After the rotenone exposure, the media was exchanged and replaced by Hanks' BSS for the 1 day post-incubation. The post-treatment media contained Compound IA or vehicle only. As measure of cell viability, cellular ATP content was analyzed using luminescence from ATP-dependent enzymatic oxidation of luciferin by luciferase. RGC-5 cells were be washed with PBS and lysed in lysis buffer (4 mM EDTA, 0.2% Triton X-100) at room temperature. In 96-well plates, ATP measurement buffer (25 mM HEPES pH 7.25, 300 µM D-luciferin, 5 µg/ml firefly luciferase, 75 µM DTT, 6.25 mM MgCl2, 625 µM EDTA and 1 mg/ml BSA) was combined with lysate to start the reaction. Luminescence was quantified immediately using a multimode plate reader (Tecan M1000, Tecan iControl 1.6 software; Tecan Austria GmbH, Grödig, Austria). Effects on cell viability were defined as the percentage of compound-mediated change in cell viability relative to rotenone-induced reduction in cell viability. Data are presented as mean ± SEM. Paired Student's t-test was used to compare non-normalized data. Statistical significance was set at p≤0.05(*), p≤0.01(**) and p≤0.001(***)."}, "[2]": {"test_system": "C57BL/6J mice", "experiment": "Mouse model of intravitreal rotenone injection, histopathological analyses of retinal degeneration, first study", "format": "in vivo", "conditions": "± SEM; for Gliosis: GFAP immunostaining RFU; for Gliosis / Retinal thickness: 7 days post-injection; for Glutamine-synthetase: GS immunostaining RFU; for Glutamine-synthetase / RGC number: 1 day post-injection", "source_text": "This mouse model is used to assess the therapeutic potential of compounds in eye disorders characterized by mitochondrial dysfunction such as LHON, DOA, macular degeneration, retinopathy, and complex I deficiency. It is a widely accepted in vivo model based on single-eye intravitreal injection of the mitochondrial complex I inhibitor rotenone in the adult mouse. Intravitreal injection of rotenone induces neurotoxicity through mitochondrial complex I dysfunction in the retina which is the main molecular dysfunction […]. […] Histological analysis includes quantitative measurement of the retinal thickness (whole retina and individual layers), RGC apoptosis and cell death, oxidative stress, glutamine synthetase expression, and gliosis. The non-injected eye is used as a within subject, i.e. intraindividual, control. Male wild-type C57BL/6J mice (7 weeks old, about 25 g body weight) are individually housed in Makrolon type II cages with standard bedding and free access to food and water under a regular 12-hours light-dark cycle (8 a.m. to 8 p.m.). […] The injection is performed over a period of 2 min and the needle is kept in place for an additional 3 min, after which it is gently removed. Sterile surgical glue (Histoacryl, BRAUN/Aesculap AG, Germany) is used to seal the site of injection and a sterile antimicrobial ophtalmic ointment (Neosporin, GlaxoSmithKline, UK) is applied to the injected eye to avoid any infection. […] The eye balls are removed, retinas are dissected, fixed for an additional 2 h at 4°C, incubated in PB 0.1 M and 30% sucrose overnight, frozen in optimal cutting temperature compound (O.C.T., Tissue-Tek, Miles Laboratories, Elkhart, IN, USA), sliced at 14 µm, and collected onto glass slides for immunostaining. Immunostaining is performed accordingly to conventional method using multiple primary antibodies. Fluorescent-conjugated secondary antibodies and DAPI are used for visualization under a fluorescence microscope. All procedures are performed in accordance with the Swiss regulation and under a license approved by the \"Kantonales Veterinäramt Basel-Land\". Results: […] Table 5 In Table 5, the histological data are expressed as % of sham (DMSO) injected control ± SEM. […] IA 400 means a pretreatment with Compound IA at 400 mg/kg, similarily IA 2000 means a pretreatment with Compound IA at 2000 mg/kg. Statistical significance relative to vehicle + rotenone group is p ≤ 0.05 (*), p ≤ 0.01 (**). n is the number of retinas per group."}, "[3]": {"experiment": "Literature plasma and brain levels after oral dosing (Torii et al., Nagai et al.)", "format": "in vivo", "conditions": "rats, oral 10 mg/kg", "method": "Beyond the high first-pass effect, a further drawback of compounds of formula (I), and again exemplified with compound IA as a representative for this compound class, is the fact, that these compounds are reaching the brain only in very limited amounts when given orally. For example, it is known from the literature (Torii H, Yoshida K, Kobayashi T, Tsukamoto T, Tanayama S. J Pharmacobiodyn. 1985 Jun;8(6):457-67) that an oral dose of 10 mg/kg of idebenone (compound IA) in rats leads to plasma levels of approximately 1000 ng/ml of total idebenone as measured by radioactivity after oral dosing of radioactive labeled compound IA. The total concentration means idebenone including its metabolites. […] The corresponding levels in the brain are 10 ng/ml of total idebenone (which again means including the metabolites), resulting in only 0.03 ng/ml for parent idebenone itself. As a result, the ratio of brain vs plasma levels is about 1%. This is in line with the findings of Nagai et al (Nagai Y, Yoshida K, Narumi S, Tanayama S, Nagaoka A. Brain distribution of idebenone and its effect on local cerebral glucose utilization in rats. Arch Gerontol Geriatr. 1989;8(3):257-72), where higher oral doses of idebenone (100 mg/kg) are leading to similar low brain- to-plasma ratio of 1-2% in rats."}, "[4]": {"conditions": "rats, cited from earlier work"}, "[5]": {"conditions": "400 mg/kg pretreatment 3 weeks + rotenone"}, "[6]": {"conditions": "2000 mg/kg pretreatment 3 weeks + rotenone"}, "[7]": {"conditions": "correction factor calculated from Torii et al"}, "[8]": {"conditions": "oral dose of 10 mg/kg, Torii et al."}},
  "note": "Where “and” joins values, the source holds several entries; their conditions need not be identical. Identical values can stand only once. Marks after values point to notes of the source that are not given here.",
  "data": [
    {"smiles": "COC1=C(OC)C(=O)C(CCCCCCCCCCO)=C(C)C1=O", "note": "[Compound IA, Idebenone]", "values": [
      {"measurement": "cell viability, compound-mediated change relative to rotenone-induced reduction, mean", "setting": "[1]; 1 day-preincubation, 100 nM", "result": 12.6, "unit": "%"},
      {"measurement": "cell viability, compound-mediated change relative to rotenone-induced reduction, mean (Fig. 2)", "setting": "[1]; 1 day-preincubation, 1 µM", "result": "highly significant"},
      {"measurement": "cell viability, compound-mediated change relative to rotenone-induced reduction, mean", "setting": "[1]; 2 day-preincubation, 1 nM", "result": 1.0, "unit": "%"},
      {"measurement": "cell viability, compound-mediated change relative to rotenone-induced reduction, mean", "setting": "[1]; 2 day-preincubation, 10 nM", "result": "7% and 7.3%"},
      {"measurement": "cell viability, compound-mediated change relative to rotenone-induced reduction, mean", "setting": "[1]; 2 day-preincubation, 100 nM", "result": "35% and 34.9%"},
      {"measurement": "cell viability, compound-mediated change relative to rotenone-induced reduction, mean", "setting": "[1]; 2 day-preincubation, 1000 nM", "result": "58% and 58.4%"},
      {"measurement": "concentrations at which viability of RGC-5 cells was significantly rescued", "setting": "[1]; rotenone challenge, dose dependent", "result": "≥ 10", "unit": "nM"},
      {"measurement": "Gliosis", "setting": "[2]; 400 mg/kg + rotenone", "result": "112.7 ± 11.9 * (n=3) % of sham (DMSO) injected control"},
      {"measurement": "Glutamine-synthetase", "setting": "[2]; 400 mg/kg + rotenone", "result": "98.5 ± 1.9 (n=5) % of sham (DMSO) injected control"},
      {"measurement": "RGC number", "setting": "[2]; [5]", "result": "94.6 ± 3.2 ** (n=3) % of sham (DMSO) injected control"},
      {"measurement": "Retinal thickness", "setting": "[2]; [5]", "result": "84.3 ± 2.9 ** (n=3) % of sham (DMSO) injected control"},
      {"measurement": "Gliosis", "setting": "[2]; 2000 mg/kg + rotenone", "result": "134.7 ± 10.7* (n=3) % of sham (DMSO) injected control"},
      {"measurement": "Glutamine-synthetase", "setting": "[2]; 2000 mg/kg + rotenone", "result": "99 ± 2.9 * (n=6) % of sham (DMSO) injected control"},
      {"measurement": "RGC number", "setting": "[2]; [6]", "result": "101.3 ± 11.3 (n=3) % of sham (DMSO) injected control"},
      {"measurement": "Retinal thickness", "setting": "[2]; [6]", "result": "76.9 ± 10.1 (n=4) % of sham (DMSO) injected control"},
      {"measurement": "Kp", "setting": "[3]; rat, brain / plasma, read-out: ratio of brain vs plasma levels", "result": "~0.01"},
      {"measurement": "idebenone plasma levels (unmetabolized parent)", "setting": "[3]; [7]", "result": 3, "unit": "ng/mL"},
      {"measurement": "levels in the brain of parent idebenone", "setting": "[3]; [7]", "result": 0.03, "unit": "ng/mL"},
      {"measurement": "brain- to-plasma ratio", "setting": "[4]; oral 100 mg/kg, Nagai et al", "result": "1-2%"},
      {"measurement": "levels in the brain of total idebenone (including metabolites)", "setting": "[4]; [8]", "result": 10, "unit": "ng/mL"},
      {"measurement": "plasma levels of total idebenone (including metabolites, by radioactivity)", "setting": "[4]; [8]", "result": "approximately 1000 ng/ml"}
    ]}
  ]
}
